Assay results taken from paper PMC10452181, “Synthesis and Biological Evaluation of Cyclobutane-Based β3 Integrin Antagonists: A Novel Approach to Targeting Integrins for Cancer Therapy” (Cancers, 2023).
Where two headings read alike, the source gives them in different places.

Experiments:
M14 cells = assay: cells; format: cell-based, human; conditions: 24 h
Protocol: M14 cells (4 × 10^5/mL in RPMI 1640 medium) were seeded in six-well plates and incubated at 37 °C in a 5% CO2 humidified atmosphere for 48 h. The resulting confluent monolayer was scratched with a sterile P200 pipette tip to create a gap (approximately 2 cm in length and 650 μm in width) in the centre of the well. The medium was removed, and the cells washed with Hank’s balanced salt solution (HBSS) (1 mL) and replaced with a medium containing the test antagonist. After 24 h, the cells were washed twice with HBSS and fixed with ice-pre-cooled methanol for thirty minutes at −20 °C. Following hydration with two washes in PBS, the monolayers were counterstained with Harris’s haematoxylin solution for two minutes, then washed in tap water for one minute and left to dry at room temperature. The plates were observed using an inverted microscope, and digital images captured.
The anti-αvβ3 activity of selected compounds was confirmed in a wound-healing assay (Figure 3). A number of cell lines were initially investigated for their suitability in this assay. The Sk-Mel-2 cell line which adhered well to fibronectin in the adhesion assay migrated very slowly; therefore, M14 melanoma cells which combined high levels of αvβ3 with rapid migration and low levels of proliferation over the assay period (Supplementary Figure S4) were selected.

in vitro = format: cell-based, human; conditions: human
Protocol: (§1) Before use in cell-based assays of integrin function, the effect of compounds on cell proliferation was tested using the MTT assay to avoid adhesion results being confounded by cell death (Supplementary Table S1). The effect of compounds on cell adhesion was then initially tested at a single, nontoxic concentration to identify active antagonists for further characterisation; those displaying a promising activity in the adhesion assay were tested at a wider range of concentrations to determine the IC50 (Table 2). […] Nevertheless, it is a cost-effective initial screening method. page 4: Table S1. Cytotoxicity of compounds on the cell lines used in the functional assays (measured by MTT assay). Cells (2000 cells/well for Sk-Mel-2; 1 x 10^4 cells/mL for M14) were incubated for 96 hours at 37 ° C in a total volume of 200 μL/well (180 μL medium + 20 μ L test compound solution). After 96 hours, the medium was replaced by fresh medium containing 0.5 mg/ml (end conc.) MTT per well, incubated for 4 h then the plate processed and read as described in the main text. […] ICT9053 41 naphthyridine 1 NHSO2Mes H Ester 52.6 ± 0.6 72.7 ± 9.8 ICT9065 42 naphthyridine 1 H H Ester >100 - ICT9079 43 naphthyridine 0 NHSO2Mes H Ester ~100 - ICT9061 44 naphthyridineT 1 NHSO2Mes H Ester 46.8 ± 10.7 - […] Ester 65.4 ± 11.1 >100 […] Ester 9.6 ± 5.7 >100 […] Ester >100 - […] Ester 54.6 ± 11.0 - […] Ester >5 3.3 ± 0.8 […] ICT9028 51 pyrimidine 2 NHSO2Ph H Acid >100 - ICT9031 52 pyrimidineT 1 NHSO2Mes H Acid >100 - ICT9090 53 pyrimidineT 2 NHSO2Mes H Acid >50 - ICT9029 54 pyrimidineT 2 NHSO2Ph H Acid >100 - ICT9063 55 naphthyridine 1 NHSO2Mes H Acid 61.7 ± 2.8 - […] Acid 45.5 ± 7.9 >100 […] 42.5 ± 1.8 >50 RGDS >50 - T trans configuration of cyclobutane sidechains.

[1] = Cytotoxicity by MTT assay, 96 h, M14; format: cell-based, human; conditions: human
Protocol: as §1

αvβ3 = target: T1, αvβ3 (Homo sapiens, UniProt P05106+P06756); assay: Sk-Mel-2 cell adhesion to immobilised fibronectin (cell-binding assay, MTT readout); format: cell-based; conditions: Sk-Mel-2 adhesion to Fn, mean ± SD
T1 construct: endogenous in cells; host or cells: SK-Mel-2 melanoma cells
T1 sequence (P06756 31-889 limits assumed): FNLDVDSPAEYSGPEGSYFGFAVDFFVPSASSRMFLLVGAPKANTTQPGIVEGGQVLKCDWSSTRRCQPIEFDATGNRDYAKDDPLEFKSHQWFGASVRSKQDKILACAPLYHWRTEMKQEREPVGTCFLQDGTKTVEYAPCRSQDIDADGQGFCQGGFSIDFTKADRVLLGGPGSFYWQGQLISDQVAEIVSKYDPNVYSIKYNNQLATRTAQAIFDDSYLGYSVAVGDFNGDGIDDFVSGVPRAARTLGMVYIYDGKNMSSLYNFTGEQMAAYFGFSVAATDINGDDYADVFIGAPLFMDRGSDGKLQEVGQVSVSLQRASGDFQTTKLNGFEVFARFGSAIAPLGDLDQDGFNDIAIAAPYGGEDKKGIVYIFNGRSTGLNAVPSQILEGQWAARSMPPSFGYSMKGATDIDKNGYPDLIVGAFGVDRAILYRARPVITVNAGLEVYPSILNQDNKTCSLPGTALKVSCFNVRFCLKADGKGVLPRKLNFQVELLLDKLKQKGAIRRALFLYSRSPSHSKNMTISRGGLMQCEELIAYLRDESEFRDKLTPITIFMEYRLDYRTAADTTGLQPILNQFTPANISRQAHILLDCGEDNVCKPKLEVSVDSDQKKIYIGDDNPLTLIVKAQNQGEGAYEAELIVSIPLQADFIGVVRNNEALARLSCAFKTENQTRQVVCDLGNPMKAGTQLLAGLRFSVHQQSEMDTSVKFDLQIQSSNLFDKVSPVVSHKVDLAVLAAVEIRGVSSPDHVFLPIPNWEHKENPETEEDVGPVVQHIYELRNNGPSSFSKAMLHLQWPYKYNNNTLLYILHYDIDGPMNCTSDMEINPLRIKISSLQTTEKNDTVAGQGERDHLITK
T1 sequence (P06756 891-1048 partner limits assumed): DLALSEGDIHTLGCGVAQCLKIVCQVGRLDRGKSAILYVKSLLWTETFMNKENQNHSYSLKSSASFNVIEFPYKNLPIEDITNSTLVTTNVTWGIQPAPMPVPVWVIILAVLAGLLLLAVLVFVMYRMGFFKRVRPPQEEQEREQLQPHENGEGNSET
T1 sequence (P05106 27-788): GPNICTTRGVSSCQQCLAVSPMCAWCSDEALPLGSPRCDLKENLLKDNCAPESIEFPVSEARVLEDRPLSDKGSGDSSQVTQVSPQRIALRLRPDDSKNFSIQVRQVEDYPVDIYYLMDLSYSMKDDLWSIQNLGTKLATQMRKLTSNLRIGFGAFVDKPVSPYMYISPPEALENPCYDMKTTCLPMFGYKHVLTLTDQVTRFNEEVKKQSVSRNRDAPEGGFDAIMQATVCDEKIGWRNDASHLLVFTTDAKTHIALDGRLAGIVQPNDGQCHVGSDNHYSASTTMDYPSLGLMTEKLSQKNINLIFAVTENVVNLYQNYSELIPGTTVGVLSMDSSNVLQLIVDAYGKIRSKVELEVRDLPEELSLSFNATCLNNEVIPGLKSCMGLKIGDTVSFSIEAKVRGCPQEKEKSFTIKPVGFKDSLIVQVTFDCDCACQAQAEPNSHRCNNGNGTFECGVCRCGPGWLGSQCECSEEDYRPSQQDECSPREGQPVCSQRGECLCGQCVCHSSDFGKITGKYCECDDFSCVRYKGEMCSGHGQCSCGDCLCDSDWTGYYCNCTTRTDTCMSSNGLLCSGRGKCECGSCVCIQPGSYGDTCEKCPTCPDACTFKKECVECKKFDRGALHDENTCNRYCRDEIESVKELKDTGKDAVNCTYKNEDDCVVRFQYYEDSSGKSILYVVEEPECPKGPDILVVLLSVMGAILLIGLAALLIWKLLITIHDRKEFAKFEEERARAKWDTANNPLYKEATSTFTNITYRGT
Protocol: First, 96-well plates (Corning, VWR) were coated overnight at 4 °C with 0.5 μg/well fibronectin (Sigma). SK-Mel-2 cells were trypsinised, washed and resuspended in RPMI medium only at 10^5 cells/mL. Cells (100 µL/well) were treated with compound (DMSO final concentration 0.1%) at the indicated concentration for 4 hrs on a rotary shaker. Plates were washed (3 × PBS) and blocked with PBS/5% BSA for 2 hrs at 37 °C prior to adding the cells. Cells were incubated on the plates at 37 °C in a humidified chamber with 5% CO2 for 1 hr. The plates were washed 3× with PBS and a 200 µL/well RPMI medium containing 10% FCS added. The plates were incubated overnight at 37 °C as above. Finally, 0.5 mg/mL of 3-(4,5-dimethythiazol-2-yl)-2,5-diphenyl tetrazolium bromide (MTT) was added to each well and the plates incubated for a further 4 h. The medium was removed, and the insoluble formazan dissolved in 150 µL of DMSO. Absorbance was measured at 540 nm using a Thermo Multiskan EX (Thermofisher, UK)and Ascent Software (v2.6). Total binding was determined based on controls lacking any compounds (100% binding) in fibronectin-coated wells and uncoated wells blocked with BSA (0% binding) and corrected for background (no cells, fibronectin-coated).
As an initial test of anti-β3 activity, the ability of compounds to inhibit the adhesion of melanoma cells expressing high levels of αvβ3 and low levels of other RGD-binding integrins such as αvβ5 and α5β1 to immobilised fibronectin was evaluated.
Cells were seeded onto precoated plates in the presence or absence of putative antagonists and the number of adherent cells quantified colorimetrically.

αIIbβ3 = target: T2, αIIbβ3 (Homo sapiens, UniProt P05106+P08514); assay: αIIbβ3/fibrinogen purified protein binding ELISA; conditions: for IC50: read-out: IC50 (αIIbβ3/Fg)
T2 construct: purchased Sigma
T2 sequence (P08514 32-887 limits assumed): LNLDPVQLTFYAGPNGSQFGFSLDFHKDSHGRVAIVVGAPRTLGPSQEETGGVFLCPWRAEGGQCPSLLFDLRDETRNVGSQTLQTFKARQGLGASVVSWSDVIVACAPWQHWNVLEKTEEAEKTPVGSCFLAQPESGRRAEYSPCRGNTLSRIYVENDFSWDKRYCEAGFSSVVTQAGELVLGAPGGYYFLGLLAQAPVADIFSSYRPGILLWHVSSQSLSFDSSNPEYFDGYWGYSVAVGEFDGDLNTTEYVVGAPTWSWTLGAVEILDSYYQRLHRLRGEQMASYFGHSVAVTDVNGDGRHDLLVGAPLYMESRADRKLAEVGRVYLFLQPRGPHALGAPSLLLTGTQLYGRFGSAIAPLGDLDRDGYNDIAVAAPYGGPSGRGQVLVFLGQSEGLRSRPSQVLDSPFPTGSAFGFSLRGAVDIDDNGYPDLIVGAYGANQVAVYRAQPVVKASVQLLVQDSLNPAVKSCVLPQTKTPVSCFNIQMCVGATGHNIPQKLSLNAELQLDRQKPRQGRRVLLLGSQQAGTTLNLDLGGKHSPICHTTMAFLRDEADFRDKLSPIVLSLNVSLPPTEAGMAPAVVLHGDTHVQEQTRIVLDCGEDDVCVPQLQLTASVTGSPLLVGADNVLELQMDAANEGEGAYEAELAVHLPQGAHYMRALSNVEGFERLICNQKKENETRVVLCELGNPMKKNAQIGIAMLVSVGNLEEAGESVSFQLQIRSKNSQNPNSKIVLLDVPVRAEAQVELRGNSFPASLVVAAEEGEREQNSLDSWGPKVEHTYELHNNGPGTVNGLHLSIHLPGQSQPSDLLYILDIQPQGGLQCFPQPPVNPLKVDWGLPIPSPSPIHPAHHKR
T2 sequence (P08514 891-1039 partner limits assumed): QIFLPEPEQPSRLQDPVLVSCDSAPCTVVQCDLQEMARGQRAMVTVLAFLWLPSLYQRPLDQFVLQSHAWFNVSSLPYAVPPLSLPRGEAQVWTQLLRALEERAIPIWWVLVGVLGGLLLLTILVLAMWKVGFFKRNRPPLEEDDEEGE
T2 sequence (P05106 27-788): as the sequence (P05106 27-788) above
Protocol: ELISA assays were performed as previously described with minor modifications. Briefly, serial dilutions of compounds were prepared in dimethyl sulfoxide (DMSO). C8 Maxi Immuno modules (Fisher Scientific) were incubated overnight at 4 °C with 0.5 μg/well of fibrinogen (Sigma) in sterile phosphate buffered saline (PBS, 0.2 g/L KCl, 8.0 g/L NaCl, 0.2 KH2PO4, 1.15 g/L Na2HPO4, pH 7.4). All subsequent wash steps were performed using 25 mM Tris, pH 7.6, 150 mM NaCl, 1 mM MnCl2, 1 mg/mL BSA, and binding/inhibition was carried out in 25 mM Tris, pH 7.6, 150 mM NaCl, 1 mM MnCl2, 1 mM MgCl2, 1 mM CaCl2, 1 mg/mL BSA.
Wells were washed and blocked with a blocking solution (PBS, 0.1% Tween 20, 3% BSA) for 1 h at 37 °C. Compounds were added to the wells at indicated concentrations (final 0.5% DMSO) in the presence of 0.5 µg/well αIIbβ3 (Sigma) and incubated at room temp for 1 h. After 3 washes, primary anti-αIIb (1:200 dilution, Santa Cruz Biotech, Heidelberg, Germany) and antigoat–HRP (1:500 dilution, Dako, Agilent, Santa Clara, CA, USA) were added at room temp for 1 h. The wells were washed and incubated with 0.1 mg/mL tetra-methylbenzidine (Sigma) for 25 min and the reaction was stopped with 1N H2SO4 (100 μL/well). The absorbance was measured at 450 nm using a Multiscan Spectrum reader (Thermo Scientific, Thermofisher, UK) and SkanIT RE (v2.4.4.5) software. Results were plotted as percent binding vs. log concentration and IC50 values determined.

platelet aggregation = assay: ADP-induced platelet aggregation in hirudin-treated whole blood (ex vivo); format: cell-based, human; conditions: for % Inhibition (Platelet Aggregation) @ 100 μM: ADP 6.4 μM
Protocol: 2.7. Platelet Aggregation Assay
Platelet aggregation was measured in hirudin-anticoagulated whole blood from a healthy donor with ADP as agonist (end concentration 6.4 μM) using a Multiplate® impedance aggregometer (Dynabyte Informationssysteme GmbH, Munich, Germany). At 37 °C, cells were charged with 300 μL of saline, 300 μL of blood, 1 μL of compound (0.1% DMSO) and incubated for 3 min. The agonist was added and the increase in electrical impedance measured from 2 electrode pairs/cell for 6 min, transformed into arbitrary units (AU), and the area under the curve was calculated.

Sk-Mel-2 = assay: in vitro; format: cell-based, human
Protocol: as §1

M14 = assay: Cytotoxicity by MTT assay, 96 h, M14; format: cell-based, human; conditions: MTT, 96 hours
Protocol: as §1

SMILES | IC50 at 96 h (in vitro) [µM] | IC50 (αvβ3) [µM] | % Inhibition (αIIbβ3/Fg) @ 50 μM (αIIbβ3; mean ± SD) [%] | IC50 (αIIbβ3; mean ± SD) [µM] | % Inhibition (Platelet Aggregation) @ 100 μM (platelet aggregation) [%] | IC50 (Sk-Mel-2) [µM] | further results
COC(=O)CCNC(=O)C1CC(CCCNc2ncccn2)C1 (centres unmarked) [ICT9003 22, 3-({3-[3-(Pyrimidin-2-ylamino)-propyl]-cyclobutanecarbonyl}-amino)-propionic acid methyl ester] | > 100 | – | – | – | – | – | IC50 (M14 cells; Homo sapiens, M14 scratch wound, mean ± SD, read-out: Migration IC50): 4.8 ± 0.2 µM; IC50 at 96 h ([1]; M14 cells, MTT, 96 hours, read-out: M14 IC50 (cytotoxicity)): > 100 µM; melting point: 94 to 95 °C
NC(N)=NCCC[C@H](N)C(=O)NCC(=O)N[C@@H](CC(=O)O)C(=O)N[C@@H](CO)C(=O)O [RGDS, reference compound] | > 50 | – | – | – | – | – | inhibition at 5 µM (αvβ3; 5 μM): 68.5 ± 29.1%; inhibition at 50 µM (αvβ3; 50 μM): 45.8 ± 16.6%
Cc1cc(C)c(S(=O)(=O)N[C@@H](CNC(=O)C2CC(CCNc3ncccn3)C2)C(=O)O)c(C)c1 (stereo partly drawn) [ICT9031 52, (S)-3-((1r,3s)-3-(2-(pyrimidin-2-ylamino)ethyl)cyclobutanecarboxamido)-2-(2,4,6-trimethylphenylsulfonamido)propanoic acid] | – | > 50 | 96.2 ± 6.3 | 1.7 ± 2.4 | 11.1 | > 100 | Adhesion % Inhibition @ 50 μM (αvβ3; 50 μM): 11.1 ± 2.4%
Cl.Cl.Cl.N=C(N)c1ccc(N2CCN(C3CCN(CC(=O)O)CC3)CC2)cc1 [GR144053, reference compound] | – | – | – | – | 100 | – | IC50 (αIIbβ3; positive control): 0.0237 ± 0.0031 µM; IC50 (platelet aggregation; ADP-induced): 0.24 µM
CC(C)[C@@H]1NC(=O)[C@@H](Cc2ccccc2)NC(=O)[C@H](CC(=O)O)NC(=O)CNC(=O)[C@H](CCCNC(=N)N)NC1=O [cRGDfV, reference compound] | 42.5 ± 1.8 | – | – | – | – | – | IC50 (M14 cells): 4 ± 0.07 µM; IC50 at 96 h [1]: > 50 µM
Cc1cc(C)c(S(=O)(=O)N[C@@H](CNC(=O)C2CC(CCc3ccc4cccnc4n3)C2)C(=O)O)c(C)c1 (stereo partly drawn) [ICT9063 55, (S)-3-{(1r,3r)-[3-(2-[1, 8] Naphthyridin-2-yl-ethyl)-cyclobutanecarbonyl]-amino}-2-(2,4,6-trimethyl-benzenesulfonylamino)-propionic acid] | – | > 5 | 84.5 ± 8.6 | 4.1 ± 2.2 | 13.0 | 61.7 ± 2.8 | Adhesion % Inhibition @ 5 μM (αvβ3; 5 μM): 20.7 ± 11.9%
COC(=O)[C@H](CNC(=O)[C@H]1C[C@H](CCc2ccc3c(n2)NCCC3)C1)NS(=O)(=O)c1c(C)cc(C)cc1C [ICT9055 46, (S)-methyl 3-((1r,3r)-3-(2-(5,6,7,8-tetrahydro-1,8-naphthyridin-2-yl)ethyl)cyclobutanecarboxamido)-2-(2,4,6-trimethylphenylsulfonamido)propanoate] | – | 0.34 ± 0.33 | 0 ± 9.8 | > 50 | 5.6 | 9.6 ± 5.7 | Adhesion % Inhibition @ 5 μM (αvβ3; 5 μM): 98.4 ± 1.9%; IC50 (M14 cells; M14 scratch wound, mean ± SD, read-out: Migration IC50): < 0.1 µM; IC50 (M14): > 100 µM
Cc1cc(C)c(S(=O)(=O)N[C@@H](CNC(=O)[C@H]2C[C@@H](CCCNc3ncccn3)C2)C(=O)O)c(C)c1 [ICT9090 53, (S)-3-((1s,3s)-{3-[3-(Pyrimidin-2-ylamino)-propyl]-cyclobutanecarbonyl}-amino)-2-(2,4,6-trimethyl-benzenesulfonylamino)-propionic acid] | – | 11 ± 11.6 | – | 0.39 ± 0.19 | 21.2 ± 7.8 | > 50 | Adhesion % Inhibition @ 50 μM (αvβ3; 50 μM): 68.9 ± 10.9%
